From US20220324912A1, “THERAPEUTIC PEPTIDES” (COHBAR, INC., priority 2019, published 2022) come the findings set out here.

Non-standard residues stand in square brackets, D forms with d. Residues, ends and D or L forms follow the SMILES beside them. No end group written: not given here.

One data set concerns 3T3-L1 adipocytes. The data set can be described thus: Free Fatty Acid Levels in 3T3-L1 Adipocytes (Example 4, 25 μM). It is filed as cell-based, mouse. The conditions noted are these: for Free fatty acid levels, Percent of Control Value (percent isoproterenol control): peptides 25 μM, 20-22 hours then 3 hours with isoproterenol 1 nM, 3T3-L1 adipocytes. The procedure: Following 12-15 days' differentiation, test peptides were added to a final concentration of 25 μM and incubated for 20-22 hours in Adipocyte Maintenance Medium. After 20-22 hours, isoproterenol (1 nM) was added to all wells except untreated controls and test peptides were replenished. Cells were incubated for a further 3 hours in Assay Buffer (Zen-Bio). Free fatty acid concentrations in the media were determined using a Free Fatty Acid Assay Kit (Zen-Bio) according to the manufacturer's instructions using a plate reader (540 nm). Absorbance values were corrected for untreated background and expressed relative to isoproterenol treated cells. Treatment with isoproterenol (1 nM) alone was used as the free fatty acid level stimulatory control. The relative standard deviation of the isoproterenol control was <10%. […] Free fatty acid levels for insulin (100 nM) treatment were <5% of the isoproterenol control value.

A short description of data set [1]: Stability in Mouse Plasma. It is filed as in vitro ADME. The following applies: pooled mouse plasma, 37° C., peptides 100 DM; for remaining at 0.25 h, 100 DM: 15 min; for remaining at 0.5 h, 100 DM: 30 min; for remaining at 1 h, 100 DM: 60 min; for remaining at 2 h, 100 DM: 120 min; for remaining at 3 h, 100 DM: 180 min. The procedure:
Peptides (100 DM) were incubated in pooled mouse plasma at 37° C. and samples were removed and immediately analyzed for the concentration of intact peptide by LC/MS/MS over the course of 3 hours. The percent of peptide remaining in plasma at each time point was calculated relative to the initial peak area (Table 9).

The subject of data set [2] is C2C12 cells. The data set can be described thus: Cell Proliferation in C2C12 Cells (Cyquant DNA dye). It is filed as cell-based, mouse. The following applies: lovastatin 10 μM, 72 hours. As to the method:
The effect of the peptides on cell proliferation was assessed using a DNA dye binding assay in cultured cells such as mouse myoblast cells. Peptides were initially prepared as 10 mM stock in DMSO, diluted to 1 mM in H2O, and added at a final concentration of 10 μM (0.1% DMSO). Lovastatin was used as a growth arrest control at final concentration of […]. […] C2C12 cells were grown in DMEM supplemented with 20% FBS with 100 IU/ml penicillin and 100 μg/ml streptomycin. […] C2C12 cells were seeded at 800 cells per well on 96-well plates. […] Cell proliferation was determined using Cyquant Direct Nucleic Acid Stain (Thermo Fisher Scientific, Waltham, Mass.) according to the manufacturer's instructions. Fluorescence for each sample well on the plate was measured using a Cytation 3 plate reader at Ex/Em=495/535 nm (BioTek, Winooski, Vt.). Activity was calculated relative to 0.1% DMSO untreated control. The relative standard deviation for the lovastatin control was <27%. The cell proliferation for the lovastatin control was <25% of the value for untreated control.

Data set [3] relates to C2C12 cells. The data set can be described thus: Cellular ROS Levels Induced by TBHP in C2C12 Cells (DCFDA). The conditions noted are these: sulforaphane 10 µM. Format: cell-based, mouse. As to the method:
The protective or synergistic effect of the peptides on cellular levels of reactive oxygen species (ROS) induced by oxidative stress can be assessed using an assay of ROS in cultured cells such as mouse myoblasts exposed to a suitable oxidative stress. Peptides were initially prepared as 10 mM stock in DMSO, diluted to 1 mM in H2O, and added at a final concentration of 10 μM (0.1% DMSO). […] TBHP was used at final concentration of 100 μM. Sulforaphane at final concentration of 10 µM was used as a protective control against TBHP induced ROS production. […] C2C12 cells were grown in DMEM supplemented with 20% FBS with 100 IU/ml penicillin and 100 μg/ml streptomycin. […] C2C12 cells were seeded at 7,500 cells per well on 96-well plates. […] After 18-20 hours of incubation the cells were loaded with DCFDA for 45 min. TBHP at 100 μM was then added to the appropriate wells for 1 hour. ROS activity was determined using a DCFDA Cellular ROS Detection Assay kit (Abcam, Cambridge, Mass.) according to the manufacturer's instructions. Fluorescence in each sample well on the plate was measured using a Cytation 3 plate reader at Ex/Em=485/535 nm (BioTek, Winooski, Vt.). Activity was calculated relative to TBHP control. The relative standard deviation of the sulforaphane control was <20%. The ROS level produced by the sulforaphane control in the presence of TBHP was 52% of the TBHP control.

A further data set has as its system DIO mice. The data set can be described thus: Effects in Diet Induced Obese (DIO) mice, once daily subcutaneous, 10 days (Example 9). It is filed as in vivo, mouse. The conditions noted are these: for Difference from Vehicle Control: Decrease from Baseline in Blood Glucose / Difference from Vehicle Control: Decrease from Baseline in Body Weight / Difference from Vehicle Control: Decrease from Baseline in Fat Mass: male DIO mice. As to the method:
C57BL/6 mice were maintained on a high fat diet for 18 weeks to develop diet induced obesity. Animals were randomized to treatment groups based on blood glucose levels and body weight. The peptide of SEQ ID NO: 9 was administered to two groups of male DIO mice once daily by subcutaneous injection at doses of 5.0 or 15 mg/kg/dose for 10 days (N=8 animals per treatment group). An additional group of male DIO mice (n=8) received vehicle (water) alone. Body weight, blood glucose levels and food intake were monitored. Body mass distribution (fat vs lean) was determined by quantitative whole body NMR prior to dosing and at the end of dosing.

The next data set has as its system 3T3-L1 mouse adipocytes. The data set can be described thus: Free Fatty Acid Levels in 3T3-L1 Mouse Adipocytes (Example 12, 10 μM). It is filed as cell-based. The conditions noted are these: insulin 100 nM, Example 12. As to the method: The effect of the peptides on fatty acid metabolism can be assessed using an assay of free fatty acid levels in cultured cells such as mouse adipocytes. Peptides were initially prepared as 10 mM stock in DMSO, diluted to 1 mM in H2O, and used at a final concentration of 10 μM (0.1% DMSO). […] After 20-22 hours, 1 nM isoproterenol was added to all wells except untreated controls and test peptides were replenished. Insulin at 100 nM was added to control wells. […] Free fatty acid concentrations in the media were determined using a Free Fatty Acid Assay kit (Zen-Bio) according to the manufacturer's instructions using a Cytation 3 plate reader at 540 nm (BioTek, Winooski, Vt.). Absorbance values were corrected for untreated background and expressed relative to isoproterenol treated cells. Treatment with isoproterenol (1 nM) alone was used as the free fatty acid level stimulatory control. The relative standard deviation of the isoproterenol control was <10%. […] Free fatty acid levels for insulin (100 nM) treatment were <5% of the isoproterenol control value.

As to 3 (LAVRRTARAIG) [compound 3], the “Free fatty acid levels, Percent of Control Value (percent isoproterenol control)” value (from here on “Free fatty acid levels, Percent”) with 3T3-L1 adipocytes was found to be 91%.

For the compound 4 (LAVRRTARAI) [compound 4], in the data set with 3T3-L1 adipocytes, the “Free fatty acid levels, Percent” value was 102%.

With 5 (LAVRRTARA[dA]) [compound 5], in the data set on 3T3-L1 adipocytes, the “Free fatty acid levels, Percent” value stood at 109%.

For the compound 21 (TFQKTHNLNQHNHPQPNY) [compound 21], the “Free fatty acid levels, Percent” value in the data set on 3T3-L1 adipocytes amounted to 91%.

As to “22 ([dA]FQKTHNLNQHNHPQPNY) [compound 22]”, the “Free fatty acid levels, Percent” value with 3T3-L1 adipocytes came to 135%.

On to “23 ([dA]FQKTHNLNQHNHPQ[dA]N) [compound 23]”, for which the “Free fatty acid levels, Percent” value in the data set on 3T3-L1 adipocytes was determined as 114%.

Turning to 26 (VVKGPLSEGGHPWGREGI) [compound 26], the “Free fatty acid levels, Percent” value in the data set on 3T3-L1 adipocytes turned out to be 129%.

As to 27 (VVKGPLSEGGHPWGREG) [compound 27], in the data set on 3T3-L1 adipocytes, the “Free fatty acid levels, Percent” value was determined as 89%.

For the compound 28 (VKAPLSEGGHPWGREG) [compound 28], the “Free fatty acid levels, Percent” value in the data set with 3T3-L1 adipocytes worked out at 135%.

As for 31 (WAIDEKAVEASGE) [compound 31], the “Free fatty acid levels, Percent” value with 3T3-L1 adipocytes is recorded as 115%.

Turning to 32 (W[dA]IDEKAVEASGE) [compound 32], the “Free fatty acid levels, Percent” value with 3T3-L1 adipocytes is recorded as 102%.

Turning to 33 (W[dA]IDEKAVE[dA]SGE) [compound 33], the “Free fatty acid levels, Percent” value in the data set with 3T3-L1 adipocytes stood at 92%.

Broadly, the amount remaining is the share of the starting amount still present when the sample was taken. A low value points to a greater loss. Regarding `CC[C@H](C)[C@H](NC(=O)[C@H](C)NC(=O)[C@H](CO)NC(=O)CNC(=O)[C@@H]1CCCN1C(=O)[C@H](CC(C)C)NC(=O)[C@@H](N)CCCNC(=N)N)C(=O)N[C@@H](CC(C)C)C(=O)N[C@H](C(=O)N[C@@H](CC(N)=O)C(=O)N1CCC[C@H]1C(=O)N[C@H](C(=O)N[C@@H](CC(C)C)C(=O)NCC(=O)N[C@@H](Cc1c[nH]c2ccccc12)C(=O)N[C@H](C(=O)N[C@@H](Cc1c[nH]c2ccccc12)C(=O)N[C@H](C(=O)O)C(C)C)C(C)C)C(C)C)[C@@H](C)O` [compound 8] (H-RLPGSAILTNPVLGWVWV-OH), in data set [1], the “% Remaining at 0 min” value turned out to be 100%; the amount remaining at 0.25 h, 100 DM came out at 84.9%; the amount remaining at 0.5 h, 100 DM was determined as 82.7%; the fraction remaining at 1 h, 100 DM came to 70.9%. In data set [1], the amount remaining at 2 h, 100 DM was determined as 58.7% and the share remaining at 3 h, 100 DM came to 45%.

On to `CC[C@H](C)[C@H](NC(=O)[C@@H](C)NC(=O)[C@H](CO)NC(=O)CNC(=O)[C@@H]1CCCN1C(=O)[C@H](CC(C)C)NC(=O)[C@@H](N)CCCNC(=N)N)C(=O)N[C@@H](CC(C)C)C(=O)N[C@H](C(=O)N[C@@H](CC(N)=O)C(=O)N1CCC[C@H]1C(=O)N[C@H](C(=O)N[C@@H](CC(C)C)C(=O)NCC(=O)N[C@@H](Cc1c[nH]c2ccccc12)C(=O)N[C@H](C(=O)N[C@@H](Cc1c[nH]c2ccccc12)C(=O)N[C@H](C(=O)O)C(C)C)C(C)C)C(C)C)[C@@H](C)O` [compound 9] (H-RLPGS[dA]ILTNPVLGWVWV-OH), for which, in data set [1], the “% Remaining at 0 min” value came out at 100%; the amount remaining at 0.25 h, 100 DM was 90.5%; the amount remaining at 0.5 h, 100 DM came to 81%; the amount remaining at 1 h, 100 DM turned out to be 72%. For the same compound, in data set [1], the fraction remaining at 2 h, 100 DM worked out at 56.5% and the share remaining at 3 h, 100 DM was 46.6%.

For the compound `CC[C@H](C)[C@H](NC(=O)[C@@H](C)NC(=O)[C@H](CO)NC(=O)CNC(=O)[C@@H]1CCCN1C(=O)[C@H](CC(C)C)NC(=O)[C@@H](N)CCCNC(=N)N)C(=O)N[C@@H](CC(C)C)C(=O)N[C@H](C(=O)N[C@@H](CC(N)=O)C(=O)N1CCC[C@H]1C(=O)N[C@H](C(=O)N[C@@H](CC(C)C)C(=O)NCC(=O)N[C@@H](Cc1c[nH]c2ccccc12)C(=O)N[C@H](C(=O)O)C(C)C)C(C)C)[C@@H](C)O` [compound 10] (H-RLPGS[dA]ILTNPVLGWV-OH), in data set [1], the “% Remaining at 0 min” value is given as 100%; the share remaining at 0.25 h, 100 DM was determined as 76.5%; the fraction remaining at 0.5 h, 100 DM was determined as 58.1%; the fraction remaining at 1 h, 100 DM worked out at 44.4%. Further, in data set [1], the share remaining at 2 h, 100 DM came out at 18.1% and the fraction remaining at 3 h, 100 DM came out at 8.9%.

As for `CC[C@H](C)C(=O)O[C@H]1C[C@@H](C)C=C2C=C[C@H](C)[C@H](CC[C@@H]3C[C@@H](O)CC(=O)O3)[C@H]21` [lovastatin, reference compound], the “Cell proliferation, % of the value for untreated control” value in the data set with C2C12 cells [2] was below 25%.

Take `C[S+]([O-])CCCCN=C=S` (stereo not shown) [sulforaphane, reference compound]: the “ROS level in the presence of TBHP, % of the TBHP control” value with C2C12 cells [3] worked out at 52%.

As to “RLPGS(dA)ILTNPVLGWVWV (RLPGS[dA]ILTNPVLGWVWV) [SEQ ID NO: 9]”, in the data set on DIO mice (5.0 mg/kg/dose), the “Difference from Vehicle Control: Decrease from Baseline in Blood Glucose” value amounted to 7.0 mg/dL, the “Difference from Vehicle Control: Decrease from Baseline in Body Weight” value was determined as 1.79% and the “Difference from Vehicle Control: Decrease from Baseline in Fat Mass” value worked out at 0.56 g. In the data set on DIO mice (15.0 mg/kg/dose), the “Difference from Vehicle Control: Decrease from Baseline in Blood Glucose” value was found to be 18.0 mg/dL, the “Difference from Vehicle Control: Decrease from Baseline in Body Weight” value turned out to be 1.96% and the “Difference from Vehicle Control: Decrease from Baseline in Fat Mass” value stood at 0.86 g. For the same compound, in the data set on DIO mice (5.0 or 15 mg/kg/dose), the “Body weight loss compared to vehicle (in words)” value is reported as “greater body weight loss”, the “Decrease in fat mass from baseline compared to vehicle (in words)” value was “greater decrease in fat mass” and the “Reduction in blood glucose compared to vehicle (in words)” value is listed as “greater reduction in blood glucose”.

With insulin [reference compound], the “Free fatty acid levels, % of isoproterenol control value” with 3T3-L1 adipocytes (insulin 100 nM, Example 4) is reported as below 5%; in the data set with 3T3-L1 mouse adipocytes it was below 5%.
